Test results from ChEMBL document CHEMBL6127010, “NMR structures of small molecules bound to a model of a CUG RNA repeat expansion” (Bioorg Med Chem Lett, 2024).
pIC50: −log10 of the molar value.

The compounds below were run on r(CUG) repeat/Muscleblind-like protein 1 (assay: Inhibition of 5'-biotinylated r(CUG) repeat (unknown origin) to His6-tagged MBNL1 (unknown origin) complex formation preincubated for 5 mins followed by compound addition for 15 mins prior to streptavidin-XL664 and anti-His6-Tb antibody addition for 1 hr by TR-FRET method).
Format: protein assay
`N=C(N)Nc1ccc(OC(=O)c2ccc(NC(=N)N)cc2)cc1` showed a pIC50 of 5.10.
Compound `NCCN1CCN=C1c1ccc(C(=O)Nc2ccc(C3=NCCN3)cc2)cc1` has a pIC50 of 4.72.
With `COc1cccc(Nc2cc(C)nc3ccc(C(=N)N)cc23)c1` the pIC50 was 4.00.
